# Tests used:
# surinam grass = assay: Test B pre/postemergence surinam grass; assay type: in vivo, Brachiaria decumbens
# Procedure, shortened: (§1)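 Test chemicals in a non-phytotoxic solvent mixture with surfactant were sprayed preemergence onto planted seeds and postemergence onto plants 2 to 18 cm tall (1- to 4-leaf stage). After twelve to sixteen days in a greenhouse, injury was visually rated against untreated controls from 0 (no effect) to 10 (complete control).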
# giant foxtail = assay: Test B pre/postemergence giant foxtail; assay type: in vivo, Setaria faberii
# Procedure, shortened: as §1
# rice = assay: Test B flood test rice; assay type: in vivo, Oryza sativa
# Procedure, shortened: (§2)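 Plants were grown to the 2-leaf stage before treatment with test chemical, then held in a greenhouse for twelve to sixteen days. Injury was visually rated against untreated controls on a 0–10 scale, where 0 is no effect and 10 is complete control.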
# soybean = assay: Test B pre/postemergence soybean; assay type: in vivo, Glycine max
# Procedure, shortened: as §1
# wheat = assay: Test B pre/postemergence wheat; assay type: in vivo, Triticum aestivum
# Procedure, shortened: as §1
# rape = assay: Test B pre/postemergence rape; assay type: in vivo, Brassica napus
# Procedure, shortened: as §1
# corn = assay: Test B pre/postemergence corn; assay type: in vivo, Zea mays
# Procedure, shortened: as §1
# morningglory = assay: Test B pre/postemergence morningglory; assay type: in vivo, Ipomoea hederacea
# Procedure, shortened: as §1
# bamyardgrass = assay: Test B flood test barnyardgrass; assay type: in vivo, Echinochloa crus-galli
# Procedure, shortened: as §2
# crabgrass = assay: Test B pre/postemergence crabgrass; assay type: in vivo, Digitaria sanguinalis
# Procedure, shortened: as §1
# blackgrass = assay: Test B pre/postemergence blackgrass; assay type: in vivo, Alopecurus myosuroides
# Procedure, shortened: as §1
# wild oat = assay: Test B pre/postemergence wild oat; assay type: in vivo, Avena fatua
# Procedure, shortened: as §1
# sugar beet = assay: Test B pre/postemergence sugar beet; assay type: in vivo, Beta vulgaris
# Procedure, shortened: as §1
# cocklebur = assay: Test B pre/postemergence cocklebur; assay type: in vivo, Xanthium strumarium
# Procedure, shortened: as §1
# duck salad = assay: Test B flood test duck salad; assay type: in vivo, Heteranthera limosa
# Procedure, shortened: as §2
# smallflower flatsedge = assay: Test B flood test smallflower flatsedge; assay type: in vivo, Cyperus difformis
# Procedure, shortened: as §2
# purple nutsedge = assay: Test B pre/postemergence purple nutsedge; assay type: in vivo, Cyperus rotundus
# Procedure, shortened: as §1
# pigweed = assay: Test B pre/postemergence pigweed; assay type: in vivo, Amaranthus retroflexus
# Procedure, shortened: as §1
# velvetleaf = assay: Test B pre/postemergence velvetleaf; assay type: in vivo, Abutilon theophrasti
# Procedure, shortened: as §1
# [1] = Postemergence, Rate 500 g/ha, scale of 0 to 10 where 0 is no effect and 10 is complete control
# [2] = Preemergence, Rate 62 g/ha, scale 0 to 10 (0 no effect, 10 complete control)
# [3] = Preemergence, Rate 125 g/ha, scale of 0 to 10 where 0 is no effect and 10 is complete control
# [4] = Preemergence, Rate 250 g/ha, scale 0 to 10, 0 is no effect, 10 is complete control
# [5] = Preemergence, Rate 500 g/ha, scale 0 to 10, 0 is no effect, 10 is complete control
# [6] = Rate 62 g/ha, Postemergence, scale of 0 to 10 where 0 is no effect and 10 is complete control
# [7] = Rate 125 g/ha, Postemergence, scale 0 to 10, 0 is no effect, 10 is complete control
# [8] = Postemergence, Rate 250 g/ha, scale 0 to 10
# [9] = Postemergence block (flood test species), Rate 250 g/ha, scale 0 to 10
# [10] = Postemergence section (flood test species), Rate 500 g/ha, scale of 0 to 10 where 0 is no effect and 10 is complete control
# [11] = Rate 125 g/ha, Postemergence section (flood test species), scale 0 to 10, 0 is no effect, 10 is complete control
# [12] = Rate 62 g/ha, Postemergence (flood test species), scale of 0 to 10 where 0 is no effect and 10 is complete control
compound,measurement,setting,value
CC(C)N(C(=O)n1oc(=O)n(C2CCCCCC2)c1=O)C1=CCCCC1 [Compound 428],B. signalgrass plant response rating,"surinam grass; Postemergence, Rate 250 g/ha, scale 0 to 10, 0 no effect, 10 complete control",0
same,B. signalgrass plant response rating,surinam grass; [1],0
same,"Plant response rating, B. signalgrass",surinam grass; [2],0
same,"Plant response rating, B. signalgrass",surinam grass; [3],0
same,B. signalgrass plant response rating,surinam grass; [4],0
same,B. signalgrass plant response rating,surinam grass; [5],3
same,B. signalgrass plant response rating,surinam grass; [6],0
same,B. signalgrass plant response rating,surinam grass; [7],0
same,Giant foxtail plant response rating,giant foxtail; [8],0
same,Giant foxtail plant response rating,giant foxtail; [1],0
same,"Plant response rating, Giant foxtail",giant foxtail; [2],0
same,"Plant response rating, Giant foxtail",giant foxtail; [3],7
same,Giant foxtail plant response rating,giant foxtail; [4],8
same,Giant foxtail plant response rating,giant foxtail; [5],10
same,Giant foxtail plant response rating,giant foxtail; [6],0
same,Giant foxtail plant response rating,giant foxtail; [7],0
same,Rice plant response rating,rice; [9],2
same,Rice plant response rating,rice; [10],2
same,Rice plant response rating,rice; [11],0
same,Soybean plant response rating,soybean; [8],2
same,Soybean plant response rating,soybean; [1],3
same,"Plant response rating, Soybean",soybean; [2],0
same,"Plant response rating, Soybean",soybean; [3],0
same,Soybean plant response rating,soybean; [4],0
same,Soybean plant response rating,soybean; [5],0
same,Soybean plant response rating,soybean; [7],1
same,Wheat plant response rating,wheat; [8],0
same,Wheat plant response rating,wheat; [1],0
same,"Plant response rating, Wheat",wheat; [2],0
same,"Plant response rating, Wheat",wheat; [3],0
same,Wheat plant response rating,wheat; [4],0
same,Wheat plant response rating,wheat; [5],0
same,Wheat plant response rating,wheat; [7],0
same,Rape plant response rating,rape; [8],0
same,Rape plant response rating,rape; [1],0
same,"Plant response rating, Rape",rape; [2],0
same,"Plant response rating, Rape",rape; [3],0
same,Rape plant response rating,rape; [4],0
same,Rape plant response rating,rape; [5],0
same,Rape plant response rating,rape; [7],0
same,Corn plant response rating,corn; [8],0
same,Corn plant response rating,corn; [1],0
same,"Plant response rating, Corn",corn; [2],0
same,"Plant response rating, Corn",corn; [3],0
same,Corn plant response rating,corn; [4],0
same,Corn plant response rating,corn; [5],0
same,Corn plant response rating,corn; [6],0
same,Corn plant response rating,corn; [7],0
same,Morningglory plant response rating,morningglory; [8],2
same,Morningglory plant response rating,morningglory; [1],3
same,"Plant response rating, Morningglory",morningglory; [2],0
same,"Plant response rating, Morningglory",morningglory; [3],0
same,Morningglory plant response rating,morningglory; [4],0
same,Morningglory plant response rating,morningglory; [5],0
same,Morningglory plant response rating,morningglory; [7],1
same,Barnyardgrass plant response rating,bamyardgrass; [9],2
same,Barnyardgrass plant response rating,bamyardgrass; [10],5
same,Barnyardgrass plant response rating,bamyardgrass; [12],0
same,Barnyardgrass plant response rating,bamyardgrass; [11],0
same,Crabgrass plant response rating,crabgrass; [8],0
same,Crabgrass plant response rating,crabgrass; [1],3
same,"Plant response rating, Crabgrass",crabgrass; [2],2
same,"Plant response rating, Crabgrass",crabgrass; [3],7
same,Crabgrass plant response rating,crabgrass; [4],9
same,Crabgrass plant response rating,crabgrass; [5],10
same,Crabgrass plant response rating,crabgrass; [6],0
same,Crabgrass plant response rating,crabgrass; [7],0
same,Blackgrass plant response rating,blackgrass; [8],3
same,Blackgrass plant response rating,blackgrass; [1],4
same,"Plant response rating, Blackgrass",blackgrass; [2],0
same,"Plant response rating, Blackgrass",blackgrass; [3],0
same,Blackgrass plant response rating,blackgrass; [4],0
same,Blackgrass plant response rating,blackgrass; [5],2
same,Blackgrass plant response rating,blackgrass; [6],0
same,Blackgrass plant response rating,blackgrass; [7],0
same,Wild oats plant response rating,wild oat; [8],0
same,Wild oats plant response rating,wild oat; [1],0
same,"Plant response rating, Wild oats",wild oat; [2],0
same,"Plant response rating, Wild oats",wild oat; [3],0
same,Wild oats plant response rating,wild oat; [4],0
same,Wild oats plant response rating,wild oat; [5],2
same,Wild oats plant response rating,wild oat; [7],0
same,Sugarbeets plant response rating,sugar beet; [8],0
same,Sugarbeets plant response rating,sugar beet; [1],0
same,"Plant response rating, Sugarbeets",sugar beet; [2],0
same,"Plant response rating, Sugarbeets",sugar beet; [3],0
same,Sugarbeets plant response rating,sugar beet; [4],0
same,Sugarbeets plant response rating,sugar beet; [5],0
same,Sugarbeets plant response rating,sugar beet; [7],0
same,Cocklebur plant response rating,cocklebur; [8],0
same,Cocklebur plant response rating,cocklebur; [1],1
same,"Plant response rating, Cocklebur",cocklebur; [2],0
same,"Plant response rating, Cocklebur",cocklebur; [3],0
same,Cocklebur plant response rating,cocklebur; [4],0
same,Cocklebur plant response rating,cocklebur; [5],0
same,Cocklebur plant response rating,cocklebur; [6],0
same,Cocklebur plant response rating,cocklebur; [7],0
same,Ducksalad plant response rating,duck salad; [9],3
same,Ducksalad plant response rating,duck salad; [10],5
same,Ducksalad plant response rating,duck salad; [12],0
same,Ducksalad plant response rating,duck salad; [11],0
same,S. Flatsedge plant response rating,smallflower flatsedge; [9],0
same,S. Flatsedge plant response rating,smallflower flatsedge; [10],9
same,S. Flatsedge plant response rating,smallflower flatsedge; [11],0
same,Nutsedge plant response rating,purple nutsedge; [8],0
same,Nutsedge plant response rating,purple nutsedge; [1],0
same,"Plant response rating, Nutsedge",purple nutsedge; [2],0
same,"Plant response rating, Nutsedge",purple nutsedge; [3],0
same,Nutsedge plant response rating,purple nutsedge; [4],0
same,Nutsedge plant response rating,purple nutsedge; [5],0
same,Nutsedge plant response rating,purple nutsedge; [7],0
same,Redroot pigweed plant response rating,pigweed; [8],0
same,Redroot pigweed plant response rating,pigweed; [1],3
same,"Plant response rating, Redroot pigweed",pigweed; [2],0
same,"Plant response rating, Redroot pigweed",pigweed; [3],0
same,Redroot pigweed plant response rating,pigweed; [4],0
same,Redroot pigweed plant response rating,pigweed; [5],0
same,Redroot pigweed plant response rating,pigweed; [7],0
same,Velvetleaf plant response rating,velvetleaf; [8],2
same,Velvetleaf plant response rating,velvetleaf; [1],7
same,"Plant response rating, Velvetleaf",velvetleaf; [2],0
same,"Plant response rating, Velvetleaf",velvetleaf; [3],0
same,Velvetleaf plant response rating,velvetleaf; [4],0
same,Velvetleaf plant response rating,velvetleaf; [5],0
same,Velvetleaf plant response rating,velvetleaf; [7],0

# Source: patent US6737383B1, “Herbicidal oxadiazolidines” (priority 1999, dated 2004)
